{"source": "patent US20100291564A1", "about": "“Methods for Detection of Micro-Organisms” (MICROSEN MEDTECH LIMITED, priority 2007, published 2010)", "key": {"[1]": {"tested_on": "E. coli", "assay": "Drug susceptibility testing by NAD-dependent ligase mediated PCR assay", "assay_type": "cell-based, Escherichia coli", "conditions": "for Cycle at which PCR was positive: plus gentamicin 50 μg/ml", "excerpt": "The PCR signal generated is related to the number of ligated molecules of the DNA substrate which in turn is related to the number of ligase molecules present. In turn, the number of molecules of ligase present is dependent on the viability of the bacterium. Upon culture of a given bacterium, if the bacteria are healthy, growing and increasing in number there will be progressively more ligase present which will generate more ligation and more PCR signal. If the bacteria are unhealthy and non-viable or dying there will be no increase in ligase on culture and the number of ligase molecules might even be expected to decrease which will be reflected in the amount of ligation and PCR signal generated. In this example we have tested the susceptibility of the organism to an antibiotic. By culturing in the presence and absence of antibiotic we can compare the signal generated from the bacterial ligase at different time points. Additionally, the experiment can be performed with and without the addition of the NAD+ cofactor. In the presence of added cofactor the ligase can cycle through many ligation steps. In the absence of added cofactor the ligase must depend on endogenous bacterial NAD+ for ligation. These two conditions, therefore are two different measures of the health of the bacterial cell\n1. 10 ml of media (LB broth) containing 50 μg/ml gentamicin was inoculated with […] E. coli bacteria/ml and incubated for 3 hours. At 30 min time points 1 ml of the culture was removed and placed on ice until completion of the time course.\n2. The bacteria were then pelleted by centrifugation at 6,000×g for 5 min and the supernatant removed.\n3. The protocol from this stage was identical to steps 3 to 8 in example 1 except that the ligase reaction was performed with and without added NAD+."}, "[2]": {"tested_on": "Staph. aureus", "assay": "Sensitivity of Staph. aureus cells to antibiotic, NAD-dependent ligase detection (LiMA-2, Taq-Man real time PCR)", "assay_type": "cell-based, Staphylococcus aureus", "conditions": "10^4 cells added to culture medium, after 4 hours in the presence of antibiotic", "protocol": "FIG. 5. Sensitivity of Staph. aureus cells to antibiotic. […]\nTake 1 ml fresh Staph. aureus culture (10^6 cells/μl), spin 8000 rpm 5 min, resuspend pellet in 1 ml deionised water Dilute in a series of 10 fold dilutions down to 10^2 cells/μl\nAfter ligation step above add 2 μl of following nuclease mix to each tube:\nAdd 2 μl to PCR mastermix, cycles were:\nThe detection limit in this experiment was estimated to be between 10 and 100 cells."}}, "data": [{"compound": "gentamicin", "values": [{"measurement": "Cycle at which PCR was positive", "setting": "[1]; With added NAD+, time 0 min", "result": 26.2}, {"measurement": "Cycle at which PCR was positive", "setting": "[1]; With added NAD+, time 30 min", "result": 25.1}, {"measurement": "Cycle at which PCR was positive", "setting": "[1]; With added NAD+, time 60 min", "result": 25.7}, {"measurement": "Cycle at which PCR was positive", "setting": "[1]; With added NAD+, time 90 min", "result": 26.2}, {"measurement": "Cycle at which PCR was positive", "setting": "[1]; With added NAD+, time 120 min", "result": 27.2}, {"measurement": "Cycle at which PCR was positive", "setting": "[1]; With added NAD+, time 150 min", "result": 26.8}, {"measurement": "Cycle at which PCR was positive", "setting": "[1]; With added NAD+, time 180 min", "result": 26.3}, {"measurement": "Cycle at which PCR was positive", "setting": "[1]; Without added NAD+, time 0 min", "result": 29.5}, {"measurement": "Cycle at which PCR was positive", "setting": "[1]; Without added NAD+, time 30 min", "result": 29.4}, {"measurement": "Cycle at which PCR was positive", "setting": "[1]; Without added NAD+, time 60 min", "result": 31.6}, {"measurement": "Cycle at which PCR was positive", "setting": "[1]; Without added NAD+, time 90 min", "result": 30.1}, {"measurement": "Cycle at which PCR was positive", "setting": "[1]; Without added NAD+, time 120 min", "result": 30.3}, {"measurement": "Cycle at which PCR was positive", "setting": "[1]; Without added NAD+, time 150 min", "result": 29.4}, {"measurement": "Cycle at which PCR was positive", "setting": "[1]; Without added NAD+, time 180 min", "result": 30.1}, {"measurement": "signal from the bacterial ligase", "setting": "[1]; in the presence of gentamicin 50 μg/ml, incubation up to 3 hours", "result": "does not increase with incubation"}]}, {"compound": "Cc1onc(-c2ccccc2)c1C(=O)N[C@@H]1C(=O)N2[C@@H]1SC(C)(C)[C@@H]2C(=O)O", "note": "[oxacillin]", "values": [{"measurement": "fall of NAD-dependent ligase content", "setting": "[2]", "result": "> 2×10^3 fold"}]}]}
